| Compound | melting point [°C] |
| --- | --- |
| CNC(=O)Nc1cc(C(Cl)(Cl)Cl)ccn1 | 192 to 195 |
| CCc1nc2c([nH]1)C(=O)N(C)CN2c1ccc(Cl)cc1Cl | 200 to 201 |
| O=C(O)CCCCOc1ccc(N2CCN(c3ccncc3)CC2)cc1 | 237 to 241 |
| COc1ccccc1Cc1n[nH]c2c1c(=O)n(-c1cccc(C(F)(F)F)c1)c1ncccc21 | 229 to 231 |
| Fc1cccc(F)c1-c1ncc(C=Cc2ccc(Cl)cc2)nn1 | 135 to 140 |
| COc1ccc(OCC(O)CN2CCN(c3ccccc3C(=O)O)CC2C)c(C(C)(C)C)c1 (stereo not given) | 205 to 208 |
| CC(=O)Nc1ccc(CCCON2CCC(C(=O)c3nc4ccccc4s3)CC2)cc1 | 171 to 172 |
| CCCc1cccc(C2CCCC2)c1 | 90 |
| COCCCNc1nc2cc(Cl)c(Cl)cc2nc1-c1ccccn1 | 99.5 to 100 |
| O=C(O)c1cc(C(F)(F)F)cc(S(=O)(=O)Cc2ccccc2)c1 | 184 to 186 |
| O=C(O)c1ccc2c(c1)C1(c3ccccc3-2)c2ccccc2-c2ccc(C(=O)O)cc21 | 352 |
| Cc1sc2cc(O)ccc2c1C1=C(c2c(C)sc3cc(O)ccc23)C(F)(F)C(F)(F)C1(F)F | 236 to 237 |
| Cc1cc2c(cc1Cl)NC(NC(C)C)=NS2(=O)=O | 120 to 122 |
| CC(=O)Nc1cc(F)ccc1C(=O)NCCN1CCC(n2c(=O)[nH]c3cc(Cl)ccc32)CC1 | 196 |
| CC(C)NC(=O)Nc1ccc(Oc2ccc3sncc3c2)c(C(F)(F)F)c1 | 158 |
| COCc1cccc(C=O)c1NC(=O)CC1c2ccccc2Oc2ccccc21 | 202 to 203 |
| Oc1cc(CCc2ccccc2)cc(O)c1O | 124 |
| Oc1ccc(OCc2ccccc2)cc1OCc1ccccc1 | 82 to 83 |
| Oc1ccc2oc(-c3cccc(O)c3O)nc2c1 | 239 to 241 |
| CC(C)c1cccc(C(C)C)c1NC(=O)CC1c2ccccc2Oc2ccccc21 | 231 to 232 |
| Fc1ccc2[nH]cc(C3=CCN(CC4COc5cccnc5O4)CC3)c2c1 (stereo not given) | 124 |
| O=C1c2ccccc2C(=O)N1CCCCOc1ccncc1 | 126 to 127 |
| COc1ccc2[nH]c(S(=O)Cc3ncc(C)c(N4CCCCC4)c3Cl)nc2c1 (stereo not given) | 151 to 152 |
| CC1CCN(CC#CCN2C(=O)c3cccc4c3N(CC4)c3ccc(Br)cc32)CC1 | 154 to 155 |
| CC(C)c1cc(-c2ccccc2)nc(-c2ccc(F)cc2)c1C=C(Br)Br | 124 to 126 |
| Nc1nc2[nH]c(CCCc3csc(C(=O)O)c3)cc2c(=O)[nH]1 | 181 to 182 |

Now from value to compound:

| melting point [°C] | Compound |
| --- | --- |
| 104 to 106 | CC(C)NC(=O)c1coc2ccccc2c1=O |
| 103 to 105 | CN(C)C=NS(=O)(=O)c1ccc(Br)s1 |
| 205 | CCNc1cc(O)c(C)cc1Cl |
| 158 | CCOC(=O)C(C)(C)c1ccc(-n2c(-c3cc(-c4cnc5ccccc5c4)ccn3)cn(C)c2=O)cc1 |
| 150 to 151 | CCOC(=O)C(C)(C)c1ccc(C2=NC(C)(C)Cc3cc(OC)c4c(c32)CC(C)(C)O4)cc1 |
| 242 | CC=CCNc1cc(C(=O)O)cc(S(N)(=O)=O)c1Sc1ccc(N)cc1 |
| 223 to 225 | O=[N+]([O-])c1cc2c(Nc3cccc(Cl)c3)ncnc2cc1F |
| 259 to 262 | Cc1cc(C)c(-c2n[nH]c(=O)c3ccccc23)c(C)c1 |
| 124 | CCN(CC)C(=O)C(C)Oc1cc(-c2ccccc2)nc2ccccc12 (stereo not given) |
| 186 to 188 | CCCCNN1C2=C(C=C(C)C1C(=O)OCC)CCC(=O)N2 (stereo not given) |
| 163 to 164 | CCCCc1c(/C=C/C(=O)O)ccc2cc(OC)ccc12 |
| 71 to 72 | CCOC(=O)c1ccc([N+](=O)[O-])cc1C |
| 148 to 149 | CC(C)C(=O)NCCNCC(O)COc1ccc(O)c(CO)c1 (stereo not given) |
| 178 to 179 | CC(C)(C)c1cc(NC(=O)Nc2ccc(Cl)c(Cl)c2)[nH]n1 |

— a melting point compilation (Tetko et al.; mined from patent text by program, amines drawn as free bases though some values may be those of a salt)
